For orientation: ED50 means the midpoint of the dose-response relation.

Data on 13 compounds can be found in patent US4402964A, “N-Aryl-N'-(3-methyl or ethyl-4-oxothiazolidinylidene)ureas useful for the treatment of epilepsy” (McNeilab, Inc., priority 1981, dated 1983).

In the assay the test system is tonic extensor seizure caused by applying an electric shock to mice via corneal electrodes. As to the kind of experiment: Maximal Electroshock (MES) test in mice (anticonvulsant activity). More on the design: key to Mice MES test results (IA): IA: inactive. The format is in vivo. The note with it: for ED50: Mus musculus, po, read-out: ED50, Mice MES test results dose (50% of the animals show a block of tonic extensor convulsions). An excerpt:
Activity in the MES test, indicating anticonvulsant activity, is characterized by a block of the tonic extensor seizure caused by applying an electric shock to mice via corneal electrodes as described in Swinyard et al., J. Pharmacol. Exp. Ther., 106, 319-330 (1952) and recorded as % block. A more recent description of current practice in anticonvulsant drug screening has also been reported by Swinyard et al., Epilepsia, 19, 409-428 (1978).
In said table, the ED50 result means that 50% of the animals show a block of tonic extensor convulsions in the MES test.
For orientation: In the maximal electroshock model the usual endpoint is tonic extension of the hind limbs.

Where [1] appears, read: 10 mg/kg p.o., mice, only dose available.

Structures are written as SMILES.

For the compound `COc1cccc(OC)c1NC(=O)N=C1SCC(=O)N1C` [IX], under “mice, p.o.”, the ED50 is 35.7 mg/kg.
With `O=C1CSC(=NC(=O)Nc2ccccc2)N1` [Example X-888, reference compound], for the setting “200 mg/kg p.o.”, the “Mice MES test results (activity in words)” value was “not active”. For the setting “200 mg/kg p.o., mice”, the “Mice MES test results (IA)” value was “IA”.
Consider `CCc1cccc(CC)c1NC(=O)N=C1SCC(=O)N1C` [V], for which the ED50 (mice, p.o.) came to 17.5 mg/kg.
On the same count and under the same terms, the same measure for `CN1C(=O)CSC1=NC(=O)Nc1c(Br)cccc1Br` [VII]: 83.9 mg/kg; for `Cc1cccc(Cl)c1NC(=O)N=C1SCC(=O)N1C` [IV, N-(2-chloro-6-methylphenyl)-N'-(3-methyl-4-oxo-2-thiazolidinylidene)urea]: 28.5 mg/kg; for `CN1C(=O)CSC1=NC(=O)Nc1c(F)cccc1F` [Example X]: 52.2 mg/kg.
Same read-out and setting: the same measure for `CN1C(=O)CSC1=NC(=O)Nc1c(Cl)cccc1Cl` [Example II, N-(2,6-dichlorophenyl)-N'-(3-methyl-4-oxo-2-thiazolidinylidene)urea]: 28.3 mg/kg.
In the case of `Cc1cccc(C)c1NC(=O)N=C1NC(=O)CS1` [McN-4241, reference compound], the ED50 (mice, p.o.) turned out to be 242 mg/kg. Moreover, the “ED50 range, Mice MES test results” value (mice, p.o., range printed in parentheses with the ED50) is 196.5 to 296.9 mg/kg.
`Cc1cccc(C)c1NC(=O)N=C1SCC(=O)N1C` [Example I, N-(2,6-dimethylphenyl)-N'-(3-methyl-4-oxo-2-thiazolidinylidene)urea]: the ED50 (mice, p.o.) worked out at 9.96 mg/kg.
As to `CN1C(=O)CSC1=NC(=O)Nc1c(Br)cc(F)cc1Br` [VI], where the note is “200 mg/kg p.o.”, the “Mice MES test results (activity in words)” value is given as “Active”. For the setting “200 mg/kg p.o., mice”, the “% block (MES test)” value turned out to be 60%.
With `Cc1cccc(NC(=O)N=C2SCC(=O)N2C)c1C` [VIII], the ED50 (mice, p.o.) worked out at 128 mg/kg.
As to `O=C1CSC(=NC(=O)Nc2c(Cl)cccc2Cl)N1` [McN-4242, reference compound], the “Mice MES test results (IA)” value (200 mg/kg p.o., mice) was “IA”.
Take `CCc1cccc(C)c1NC(=O)N=C1SCC(=O)N1C` [III]: under setting [1], the “% block (MES test)” value was 10% and the “Mice MES test results (activity in words)” value is recorded as “Active”.
